Assay results taken from ChEMBL document CHEMBL1152165, “Discovery of 1-benzoyl-3-cyanopyrrolo[1,2-a]quinolines as a new series of apoptosis inducers using a cell- and caspase-based high-throughput screening assay. Part 1: Structure-activity relationships of the 1- and 3-positions” (Bioorg Med Chem Lett, 2008).
Active and inactive are the calls of the source. No cut-off for these calls is given here.

Assays:
T47D [1] = experiment: Induction of apoptosis in human T47D cells assessed as caspase activation after 24 hrs; type: functional, cell-based
HCT-116 [2] = experiment: Induction of apoptosis in human HCT116 cells assessed as caspase activation after 24 hrs; type: functional, cell-based; details: HCT-116, 24 h
SNU-398 [3] = experiment: Induction of apoptosis in human SNU398 cells assessed as caspase activation after 24 hrs; type: functional, cell-based; details: SNU-398, 24 h
SK-BR-3 = experiment: Growth inhibition of human SKBR3 cells; type: functional
ZR-75-1 = experiment: Growth inhibition of human ZR-75-1 cells; type: functional
BT-474 = experiment: Growth inhibition of human BT474 cells; type: functional
DLD-1 = experiment: Growth inhibition of human DLD1 cells; type: functional
HT-29 = experiment: Growth inhibition of human HT-29 cells; type: functional
[4] = Growth inhibition of human H1299 cells; type: functional; details: NCI-H1299
K562 = experiment: Growth inhibition of human K562 cells; type: functional
[5] = Growth inhibition of human NAMALWA cells; type: functional; details: NAMALVA
Raji = experiment: Growth inhibition of human Raji cells; type: functional
T47D [6] = experiment: Growth inhibition of human T47D cells; type: functional
HCT-116 [7] = experiment: Growth inhibition of human HCT116 cells; type: functional
SNU-398 [8] = experiment: Growth inhibition of human SNU398 cells; type: functional
HCT-116 [9] = experiment: Cell cycle arrest in human HCT116 cells by accumulation at G2/M phase by flow cytometry; type: functional, cell-based
[10] = Inhibition of tubulin polymerization up to 50 uM
[11] = Inhibition of tubulin polymerization

| Compound | EC50 (T47D [1]) [µM] | EC50 (HCT-116 [2]) [µM] | EC50 (SNU-398 [3]) [µM] | GI50 (T47D [6]) [µM] | GI50 (HCT-116 [7]) [µM] | GI50 (SNU-398 [8]) [µM] | further results |
| --- | --- | --- | --- | --- | --- | --- | --- |
| N#Cc1cc(C(O)c2ccc(N3CCCC3)cc2)n2c1ccc1ccccc12 (stereo not drawn) | 0.21 | 0.32 | 0.3 |  |  |  |  |
| N#Cc1cc(C(=O)c2ccccn2)n2c1ccc1ccccc12 | 0.04 | 1.9 | 1.6 |  |  |  |  |
| COc1ccc(C(O)c2cc(C#N)c3ccc4ccccc4n23)cc1 (stereo not drawn) | 0.22 | 0.24 | 0.14 |  |  |  |  |
| Cc1ccc(C(=O)c2cc(C#N)c3ccc4ccccc4n23)cc1 | 0.93 | 4.2 | 2.7 |  |  |  |  |
| N#Cc1cc(C(O)c2ccc(-n3cccn3)cc2)n2c1ccc1ccccc12 (stereo not drawn) | 0.16 | 0.55 | 0.35 |  |  |  |  |
| N#Cc1cc(C(=O)c2ccccc2)n2c1ccc1ccccc12 | 0.078 | 5.5 | 5.2 | 0.07 | 5.8 | 2 | GI50 (SK-BR-3): 0.07 µM; GI50 (ZR-75-1): 0.07 µM; GI50 (BT-474): 0.07 µM; GI50 (DLD-1): 1.2 µM; GI50 (HT-29): 1.2 µM; GI50 [4]: 1.2 µM; GI50 (K562): 1.2 µM; GI50 [5]: 1.2 µM; GI50 (Raji): 1.2 µM; Activity (HCT-116 [9]): Active; Activity [10]: inactive |
| N#Cc1cc(C(=O)c2ccc(-n3cccn3)cc2)n2c1ccc1ccccc12 | 0.041 | 0.096 | 0.057 | 0.072 | 0.24 | 0.036 | IC50 [11]: 1 µM |
| N#Cc1cc(C(=O)c2cccnc2)n2c1ccc1ccccc12 | 0.69 | 3.7 | 2.6 |  |  |  |  |
| COc1ccc(C(=O)c2cc(C#N)c3ccc4ccccc4n23)cc1 | 0.28 | 0.28 | 0.18 | 0.071 | 0.49 | 0.12 |  |
| N#Cc1cc(C(=O)c2ccc(F)cc2)n2c1ccc1ccccc12 | 0.036 | 1.2 | 0.88 |  |  |  |  |
| N#Cc1cc(C(=O)c2ccc([N+](=O)[O-])cc2)n2c1ccc1ccccc12 | 2.8 | > 10 | > 10 |  |  |  |  |
| CCN(CC)c1ccc(C(=O)c2cc(C#N)c3ccc4ccccc4n23)cc1 | 0.1 | 0.37 | 0.26 |  |  |  |  |
| CCOC(=O)c1cc(C(=O)c2cccc(OC)c2)n2c1ccc1ccccc12 | > 10 | > 10 | > 10 |  |  |  |  |
| N#Cc1cc(C(=O)c2ccc(-n3ccnc3)cc2)n2c1ccc1ccccc12 | 0.034 | 0.074 | 0.039 | 0.041 | 0.065 | 0.059 | Activity (HCT-116 [9]): Active; IC50 [11]: 5 µM |
| N#Cc1cc(C(=O)c2ccc(N)cc2)n2c1ccc1ccccc12 | 0.17 | 0.24 | 0.2 | 0.47 | 1.2 | 0.42 |  |
| COc1cccc(C(=O)c2cc(C#N)c3ccc4ccccc4n23)c1 | 0.17 | 1.7 | 1.6 |  |  |  |  |
| N#Cc1cc(C(=O)c2ccc(Cl)cc2)n2c1ccc1ccccc12 | 0.049 | > 10 | > 10 |  |  |  |  |
| N#Cc1cc(C(=O)c2ccc(N3CCNCC3)cc2)n2c1ccc1ccccc12 | > 10 | > 10 | > 10 |  |  |  |  |
| CC(=O)c1cc(C(=O)c2ccc(C)cc2)n2c1ccc1ccccc12 | > 10 | > 10 | > 10 |  |  |  |  |
| N#Cc1cc(C(=O)c2ccc(N3CCCC3)cc2)n2c1ccc1ccccc12 | 0.3 | 0.58 | 0.51 | 0.075 | 0.25 | 0.14 |  |
| Cc1ccccc1C(=O)c1cc(C#N)c2ccc3ccccc3n12 | 0.14 | 2.5 | 2.7 | 0.087 | 1.6 | 0.73 |  |
